Source: patent US11053204B2, “Pyrimidinyloxy benzene derivatives as herbicides” (FMC Corporation, priority 2015, dated 2021)

How the values were obtained:
Format in all cases: in vivo
[1] = test system: windgrass (Apera spica-venti); test: Test C preemergence, plant response rating
[2] = test system: pigweed, palmer (palmer pigweed, Amaranthus palmeri); test: Test C preemergence, plant response rating
[3] = test system: speedwell (bird's-eye speedwell, Veronica persica); test: Test C postemergence, plant response rating; settings: for Plant response rating, Speedwell: scale 0 to 100; for Speedwell plant response rating: scale 0 to 100 (0 no effect, 100 complete control)
Outline: (§1)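 Both timings shared one formulation, a non-phytotoxic solvent mixture with surfactant, and a greenhouse period of 13 to 15 d. Preemergence used seeded loam/sand or silt loam soil, postemergence used 2 to 18 cm plants; visual ratings ran from 0 (no effect) to 100 (complete control).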

[4] = test system: pigweed, palmer (palmer pigweed, Amaranthus palmeri); test: Test C postemergence, plant response rating; settings: for Plant response rating, Pigweed, Palmer: scale 0 to 100; for Pigweed, Palmer plant response rating: scale 0 to 100 (0 no effect, 100 complete control)
Outline: as §1

[5] = test system: Canada thistle (Cirsium arvense); test: Test C postemergence, plant response rating; settings: for Plant response rating, Canada Thistle: scale 0 to 100; for Canada Thistle plant response rating: scale 0 to 100 (0 no effect, 100 complete control)
Outline: as §1

[6] = test system: surinam grass (Brachiaria decumbens); test: Test C postemergence, plant response rating; settings: for Plant response rating, Surinam Grass: scale 0 to 100; for Surinam Grass plant response rating: scale 0 to 100 (0 no effect, 100 complete control)
Outline: as §1

[7] = test system: field violet (Viola arvensis); test: Test C postemergence, plant response rating; settings: for Plant response rating, Field Violet: scale 0 to 100; for Field Violet plant response rating: scale 0 to 100 (0 no effect, 100 complete control)
Outline: as §1

[8] = test system: wild poinsettia (Euphorbia heterophylla); test: Test C postemergence, plant response rating; settings: for Plant response rating, Poinsettia, Wild: scale 0 to 100; for Poinsettia, Wild plant response rating: scale 0 to 100 (0 no effect, 100 complete control)
Outline: as §1

[9] = test system: johnsongrass (Sorghum halepense); test: Test C postemergence, plant response rating; settings: for Plant response rating, Johnsongrass: scale 0 to 100; for Johnsongrass plant response rating: scale 0 to 100 (0 no effect, 100 complete control)
Outline: as §1

[10] = test system: windgrass (Apera spica-venti); test: Test C postemergence, plant response rating; settings: for Plant response rating, Windgrass: scale 0 to 100; for Windgrass plant response rating: scale 0 to 100 (0 no effect, 100 complete control)
Outline: as §1

[11] = test system: geranium, cutleaf (cutleaf geranium, Geranium dissectum); test: Test C postemergence, plant response rating; settings: for Plant response rating, Geranium, Cutleaf: scale 0 to 100; for Geranium, Cutleaf plant response rating: scale 0 to 100 (0 no effect, 100 complete control)
Outline: as §1

[12] = test system: nightshade (eastern black nightshade, Solanum ptycanthum); test: Test C postemergence, plant response rating; settings: for Plant response rating, Nightshade: scale 0 to 100; for Nightshade plant response rating: scale 0 to 100 (0 no effect, 100 complete control)
Outline: as §1

[13] = test system: field poppy (Papaver rhoeas); test: Test C postemergence, plant response rating; settings: for Plant response rating, Field Poppy: scale 0 to 100; for Field Poppy plant response rating: scale 0 to 100 (0 no effect, 100 complete control)
Outline: as §1

[14] = test system: buckwheat, wild (wild buckwheat, Polygonum convolvulus); test: Test C postemergence, plant response rating; settings: for Plant response rating, Buckwheat, Wild: scale 0 to 100; for Buckwheat, Wild plant response rating: scale 0 to 100 (0 no effect, 100 complete control)
Outline: as §1

[15] = test system: johnsongrass (Sorghum halepense); test: Test C preemergence, plant response rating
[16] = test system: barnyardgrass (Echinochloa crus-galli); test: Test C preemergence, plant response rating; settings: Preemergence
[17] = test system: wild poinsettia (Euphorbia heterophylla); test: Test C preemergence, plant response rating
[18] = test system: nightshade (eastern black nightshade, Solanum ptycanthum); test: Test C preemergence, plant response rating

In the case of CCCC(=O)c1c(Br)cccc1Oc1ncc(Cl)cn1 [Compound 75], the “Plant response rating, Windgrass” value ([1]; 16 g ai/ha, scale 0 to 100) was 5, the “Plant response rating, Windgrass” value ([1]; 31 g ai/ha, scale 0 to 100) was 45 and the “Plant response rating, Windgrass” value ([1]; 62 g ai/ha, scale 0 to 100) was 100. The “Plant response rating, Windgrass” value ([1]; 125 g ai/ha, scale of 0 to 100) was 100, the “Plant response rating, Pigweed, Palmer” value ([2]; 16 g ai/ha, scale 0 to 100) was 70 and the “Plant response rating, Pigweed, Palmer” value ([2]; 31 g ai/ha, scale 0 to 100) was 100. For the same molecule, the “Plant response rating, Pigweed, Palmer” value ([2]; 62 g ai/ha, scale 0 to 100) was 95, the “Plant response rating, Pigweed, Palmer” value ([2]; 125 g ai/ha, scale of 0 to 100) was 100 and the “Plant response rating, Speedwell” value ([3]; 16 g ai/ha) was 90. The “Plant response rating, Speedwell” value ([3]; 31 g ai/ha) was 95, the “Speedwell plant response rating” value ([3]; 62 g ai/ha) was 100 and the “Speedwell plant response rating” value ([3]; 125 g ai/ha) was 100. The “Plant response rating, Pigweed, Palmer” value ([4]; 16 g ai/ha) was 75, the “Plant response rating, Pigweed, Palmer” value ([4]; 31 g ai/ha) was 90 and the “Pigweed, Palmer plant response rating” value ([4]; 62 g ai/ha) was 95. The “Pigweed, Palmer plant response rating” value ([4]; 125 g ai/ha) was 85, the “Plant response rating, Canada Thistle” value ([5]; 16 g ai/ha) was 70 and the “Plant response rating, Canada Thistle” value ([5]; 31 g ai/ha) was 75. For the same molecule, the “Canada Thistle plant response rating” value ([5]; 62 g ai/ha) was 75, the “Canada Thistle plant response rating” value ([5]; 125 g ai/ha) was 100 and the “Plant response rating, Surinam Grass” value ([6]; 16 g ai/ha) was 10. For the same molecule, the “Plant response rating, Surinam Grass” value ([6]; 31 g ai/ha) was 15, the “Surinam Grass plant response rating” value ([6]; 62 g ai/ha) was 20 and the “Surinam Grass plant response rating” value ([6]; 125 g ai/ha) was 20. For the same molecule, the “Plant response rating, Field Violet” value ([7]; 16 g ai/ha) was 80, the “Plant response rating, Field Violet” value ([7]; 31 g ai/ha) was 98 and the “Field Violet plant response rating” value ([7]; 62 g ai/ha) was 98. For the same molecule, the “Field Violet plant response rating” value ([7]; 125 g ai/ha) was 100, the “Plant response rating, Poinsettia, Wild” value ([8]; 16 g ai/ha) was 65 and the “Plant response rating, Poinsettia, Wild” value ([8]; 31 g ai/ha) was 70. For the same molecule, the “Poinsettia, Wild plant response rating” value ([8]; 62 g ai/ha) was 80, the “Poinsettia, Wild plant response rating” value ([8]; 125 g ai/ha) was 80 and the “Plant response rating, Johnsongrass” value ([9]; 16 g ai/ha) was 5. The “Plant response rating, Johnsongrass” value ([9]; 31 g ai/ha) was 10, the “Johnsongrass plant response rating” value ([9]; 62 g ai/ha) was 10 and the “Johnsongrass plant response rating” value ([9]; 125 g ai/ha) was 70. For the same molecule, the “Plant response rating, Windgrass” value ([10]; 16 g ai/ha) was 0, the “Plant response rating, Windgrass” value ([10]; 31 g ai/ha) was 5 and the “Windgrass plant response rating” value ([10]; 62 g ai/ha) was 10. For the same molecule, the “Windgrass plant response rating” value ([10]; 125 g ai/ha) was 5, the “Plant response rating, Geranium, Cutleaf” value ([11]; 16 g ai/ha) was 30 and the “Plant response rating, Geranium, Cutleaf” value ([11]; 31 g ai/ha) was 40. For the same molecule, the “Geranium, Cutleaf plant response rating” value ([11]; 62 g ai/ha) was 35, the “Geranium, Cutleaf plant response rating” value ([11]; 125 g ai/ha) was 65 and the “Plant response rating, Nightshade” value ([12]; 16 g ai/ha) was 75. The “Plant response rating, Nightshade” value ([12]; 31 g ai/ha) was 80, the “Nightshade plant response rating” value ([12]; 62 g ai/ha) was 85 and the “Nightshade plant response rating” value ([12]; 125 g ai/ha) was 98. For the same molecule, the “Plant response rating, Field Poppy” value ([13]; 16 g ai/ha) was 70, the “Plant response rating, Field Poppy” value ([13]; 31 g ai/ha) was 80 and the “Field Poppy plant response rating” value ([13]; 62 g ai/ha) was 80. For the same molecule, the “Field Poppy plant response rating” value ([13]; 125 g ai/ha) was 100, the “Plant response rating, Buckwheat, Wild” value ([14]; 16 g ai/ha) was 45 and the “Plant response rating, Buckwheat, Wild” value ([14]; 31 g ai/ha) was 60. The “Buckwheat, Wild plant response rating” value ([14]; 62 g ai/ha) was 80, the “Buckwheat, Wild plant response rating” value ([14]; 125 g ai/ha) was 85 and the “Plant response rating, Johnsongrass” value ([15]; 16 g ai/ha, scale 0 to 100) was 0. For the same molecule, the “Plant response rating, Johnsongrass” value ([15]; 31 g ai/ha, scale 0 to 100) was 0, the “Plant response rating, Johnsongrass” value ([15]; 62 g ai/ha, scale 0 to 100) was 30 and the “Plant response rating, Johnsongrass” value ([15]; 125 g ai/ha, scale of 0 to 100) was 70. The “Plant response rating, Barnyardgrass” value ([16]; 62 g ai/ha, scale of 0 to 100) was 80, the “Plant response rating, Barnyardgrass” value ([16]; 125 g ai/ha, scale of 0 to 100) was 100 and the “Plant response rating, Barnyardgrass” value ([16]; 16 g ai/ha, scale 0 to 100) was 5. The “Plant response rating, Barnyardgrass” value ([16]; 31 g ai/ha, scale 0 to 100) was 60, the “Plant response rating, Poinsettia, Wild” value ([17]; 16 g ai/ha, scale 0 to 100) was 10 and the “Plant response rating, Poinsettia, Wild” value ([17]; 31 g ai/ha, scale 0 to 100) was 40. For the same molecule, the “Plant response rating, Poinsettia, Wild” value ([17]; 62 g ai/ha, scale 0 to 100) was 35, the “Plant response rating, Poinsettia, Wild” value ([17]; 125 g ai/ha, scale of 0 to 100) was 35 and the “Plant response rating, Nightshade” value ([18]; 16 g ai/ha, scale 0 to 100) was 40. The “Plant response rating, Nightshade” value ([18]; 31 g ai/ha, scale 0 to 100) was 75, the “Plant response rating, Nightshade” value ([18]; 62 g ai/ha, scale 0 to 100) was 75 and the “Plant response rating, Nightshade” value ([18]; 125 g ai/ha, scale of 0 to 100) was 80.
